{"source": "paper PMC9606102", "about": "“[^89Zr]Zr-PSMA-617 PET/CT in biochemical recurrence of prostate cancer: first clinical experience from a pilot study including biodistribution and dose estimates” (European Journal of Nuclear Medicine and Molecular Imaging, 2022)", "type_in_all_cases": "in vivo, human (patients)", "key": {"[1]": {"experiment": "Radiation dosimetry of [^89Zr]Zr-PSMA-617 (QDOSE / IDAC 2.1)", "parameters": "TIAC (time-integrated activity coefficient): unit not given here", "method": "(§1) Each patient underwent PET/CT imaging scans at 4 time points: 1 h, 24 h, 48 h, and 72 h post intravenous injection (p.i.) of 111 ± 11 MBq (mean ± standard deviation, range 97–129 MBq) [^89Zr]Zr-PSMA-617. All PET/CT imaging was performed on a Biograph mCT 40 scanner (Siemens Medical Solutions, Knoxville, TN, USA) comprising whole-body PET/CT scans extending from vertex to mid-femur in 3D mode. PET acquisition time duration was 4 min per bed position on the initial day of injection and extended up to 10 min on the last day. CT data were acquired in low-dose technique using an X-ray tube voltage of […] and a modulation of the tube current (CARE Dose4D, Siemens Erlangen; maximal tube current 30 mA) followed by reconstruction with a soft tissue reconstruction kernel (B31f) to a slice thickness of 5 mm (increment 2–4 mm). PET emission data was corrected for decay, randoms, and scatter. PET image reconstruction was performed applying an iterative 3-dimensional ordered-subset expectation maximization (OSEM) algorithm (3 iterations; 24 subsets) with gaussian filtering to a transaxial resolution of 5 mm at full width half maximum (FWHM). The matrix and the pixel size were 200 × 200 and 3.0 mm, respectively. Attenuation correction was performed using the low-dose CT data.\nMean absorbed radiation doses were estimated using the QDOSE program package (ABX-CRO, Dresden, Germany) considering the following organs as source organs: kidneys, liver, spleen, salivary glands (parotid gland and submandibular gland), and lacrimal gland. As a first step, volumetric co-registration of the different time points was performed by taking the first CT scan as reference. PET images, which were coupled to the CT images of the respective imaging session, were transformed according to the CT transformation matrix. Boundary VOIs which solely enclosed the source organs without interfering with the activity concentration of neighboring structures were manually drawn in the PET image that allowed the best organ delineation and then copied onto all other time-point scans. Manual adjustment of the boundary VOI for each time point was done when necessary, using the respective CT. Volume and activity estimation were performed within the boundary applying a fuzzy locally adaptive Bayesian (FLAB) segmentation algorithm for automatic volume delineation. The next step comprised mono-exponential regression of the serial measured activities using weighted least squares method and estimation of both, the time integrated activities (TIA) and the time-integrated activity coefficients (TIAC) in the source regions. As an approximation, a linear increase from t = 0 to the first acquisition time point was assumed, and the integration method for the first time interval was based on the trapezoidal method. Between the first and the last time point, a trapezoidal integration was used, whereas the TIA from the last time-point to infinity was calculated analytically by applying the mono-exponential fitting curve. The respective TIACs (often termed residence time) of the source organs were calculated by normalizing the TIA to the amount of activity administered. The total body TIA was calculated approximately using the total FOV volume of interest and the injected activity. As a further approximation, constant activity between t = 0 and the first acquisition time point was assumed, and the integration method for the first-time interval was based on the trapezoidal method. Between the first time point and infinity, the TIA was calculated analytically by using the mono-exponential fitting curve. Estimations of absorbed organ dose and effective dose were performed by the IDAC 2.1 software which is implemented in QDOSE [25–27]. The IDAC reference man was applied for the kidneys, the spleen, the liver, the heart and the intestine, and the sphere model for the salivary and lacrimal glands. […]"}, "[2]": {"experiment": "[^89Zr]Zr-PSMA-617 PET/CT biodistribution in normal organs (SUV, tissue-to-background ratio)", "settings": "for SUVmax: mean ± SD", "method": "as §1\nThe biodistribution of [^89Zr]Zr-PSMA-617 was quantified by analyzing the standard uptake values (SUV) SUVmax, SUVpeak and SUVmean at 1 h, 24 h, 48 h, and 72 h p.i.. Considering normal-organs, elliptical volumes of interest (VOI) were manually drawn enclosing regions of relatively homogenous uptake. Activity estimation was performed within the VOI applying a 40% or, in case of faintly accumulating organs, a 20% threshold using the SyngoVia software (Enterprise VB 60, Siemens, Erlangen, Germany). The following organs were included in this evaluation: the brain, salivary, and lacrimal glands, nasal mucosa, lung, liver, spleen, small and large intestine, and the kidneys. With regard to the large intestine, SUV was determined at the descending colon. Blood pool and background were evaluated in the descending aorta and the gluteal muscle, respectively. Tissue-to-background ratios (TiBR) were calculated by dividing the SUVmax of the organs by the SUVmean of the background (gluteal muscle)."}, "[3]": {"experiment": "Adverse event recording after [^89Zr]Zr-PSMA-617 PET/CT", "settings": "7 patients, 111 ± 11 MBq i.v., during examination and 4 weeks follow-up", "method": "Any adverse event was recorded during and after examination. Vital parameters as heart rate, blood pressure, body temperature, and oxygen saturation were closely monitored. Within a time interval of 4 weeks after [^89Zr]Zr-PSMA-617 PET/CT, patients were additionally interviewed about potential side effects."}}, "note": "“And” between values parts separate entries of the source, which are not always exact repeats. Identical values can stand only once. “Also recorded” adds a separate entry of the source."}
{"smiles": "O=C([O-])CN1CCN(CC(=O)[O-])CCN(CC(=O)NCC2CCC(C(=O)NC(Cc3ccc4ccccc4c3)C(=O)NCCCCC(NC(=O)NC(CCC(=O)O)C(=O)O)C(=O)O)CC2)CCN(CC(=O)[O-])CC1.[89Zr+4]", "note": "(stereo not shown) [[^89Zr]Zr-PSMA-617]", "values": [{"measurement": "Overall effective dose, times higher than PET with [^68Ga]Ga-PSMA-617 or [^68Ga]Ga-PSMA-11", "setting": "[1]; 111 MBq vs diagnostic activity of 200 MBq of the 68Ga tracers (ref 29, 30)", "result": "2–3 times"}, {"measurement": "Effective dose", "setting": "[1]; average of 7 patients, mean ± SD", "result": "0.0913 ± 0.0118", "unit": "mSv/MBq"}, {"measurement": "Absorbed doses of parotid glands and kidneys, times higher than [^68Ga]Ga-PSMA-617 and [^68Ga]Ga-PSMA-11", "setting": "[1]; in absolute numbers, comparators ref 29, 30", "result": "3–4 times"}, {"measurement": "TIAC (time-integrated activity coefficient)", "setting": "[1]; kidneys, mean ± SD", "result": "1.74 ± 0.44"}, {"measurement": "l (rate constant)", "setting": "[1]; kidneys, mean ± SD", "result": "0.022 ± 0.002", "unit": "h⁻¹"}, {"measurement": "A (% injected A0), monoexponential curve-fitting parameter", "setting": "[1]; kidneys, mean ± SD, n = 7 patients", "result": "3.75 ± 1.24", "unit": "% injected A0"}, {"measurement": "Absorbed dose", "setting": "[1]; kidneys, mean ± SD, IDAC 2.1", "result": "0.517 ± 0.125", "unit": "mGy/MBq"}, {"measurement": "A (% injected A0), monoexponential curve-fitting parameter", "setting": "[1]; lacrimal gland, mean ± SD", "result": "0.02 ± 0.01", "unit": "% injected A0"}, {"measurement": "l (rate constant)", "setting": "[1]; lacrimal gland, mean ± SD", "result": "0.030 ± 0.006", "unit": "h⁻¹"}, {"measurement": "Absorbed dose", "setting": "[1]; lacrimal gland, mean ± SD, sphere model", "result": "0.156 ± 0.070", "unit": "mGy/MBq"}, {"measurement": "A (% injected A0), monoexponential curve-fitting parameter", "setting": "[1]; liver, mean ± SD", "result": "6.62 ± 1.39", "unit": "% injected A0"}, {"measurement": "TIAC (time-integrated activity coefficient)", "setting": "[1]; liver, mean ± SD", "result": "1.54 ± 0.49"}, {"measurement": "l (rate constant)", "setting": "[1]; liver, mean ± SD", "result": "0.049 ± 0.014", "unit": "h⁻¹"}, {"measurement": "Absorbed dose", "setting": "[1]; liver, mean ± SD, IDAC 2.1", "result": "0.158 ± 0.051", "unit": "mGy/MBq"}, {"measurement": "A (% injected A0), monoexponential curve-fitting parameter", "setting": "[1]; parotid gland, mean ± SD", "result": "0.70 ± 0.20", "unit": "% injected A0"}, {"measurement": "TIAC (time-integrated activity coefficient)", "setting": "[1]; parotid gland, mean ± SD", "result": "0.31 ± 0.10"}, {"measurement": "l (rate constant)", "setting": "[1]; parotid gland, mean ± SD", "result": "0.031 ± 0.005", "unit": "h⁻¹"}, {"measurement": "Absorbed dose", "setting": "[1]; parotid gland, mean ± SD, sphere model", "result": "0.601 ± 0.185", "unit": "mGy/MBq"}, {"measurement": "A (% injected A0), monoexponential curve-fitting parameter", "setting": "[1]; spleen, mean ± SD", "result": "1.25 ± 0.70", "unit": "% injected A0"}, {"measurement": "TIAC (time-integrated activity coefficient)", "setting": "[1]; spleen, mean ± SD", "result": "0.21 ± 0.12"}, {"measurement": "l (rate constant)", "setting": "[1]; spleen, mean ± SD", "result": "0.079 ± 0.034", "unit": "h⁻¹"}, {"measurement": "Absorbed dose", "setting": "[1]; spleen, mean ± SD, IDAC 2.1", "result": "0.175 ± 0.068", "unit": "mGy/MBq"}, {"measurement": "A (% injected A0), monoexponential curve-fitting parameter", "setting": "[1]; submandibular gland, mean ± SD", "result": "0.27 ± 0.09", "unit": "% injected A0"}, {"measurement": "TIAC (time-integrated activity coefficient)", "setting": "[1]; submandibular gland, mean ± SD", "result": "0.13 ± 0.04"}, {"measurement": "l (rate constant)", "setting": "[1]; submandibular gland, mean ± SD", "result": "0.029 ± 0.004", "unit": "h⁻¹"}, {"measurement": "Absorbed dose", "setting": "[1]; submandibular gland, mean ± SD, sphere model", "result": "0.468 ± 0.136 mGy/MBq and 0.468 ± 0.185 mGy/MBq"}, {"measurement": "SUVmax", "setting": "[2]; colon, 1 h p.i.", "result": "3.50 ± 2.21"}, {"measurement": "SUVmax", "setting": "[2]; colon, 72 h p.i.", "result": "13.57 ± 5.00"}, {"measurement": "SUVmax", "setting": "[2]; kidneys, 1 h p.i.", "result": "21.15 ± 12.31"}, {"measurement": "SUVmax", "setting": "[2]; kidneys, 72 h p.i.", "result": "7.43 ± 1.56"}, {"measurement": "Tissue-to-background ratio (TiBR)", "setting": "[2]; salivary glands, kidneys, and colon at 72 h p.i., SUVmax organ / SUVmean gluteal muscle", "result": "≥ 50"}, {"measurement": "SUVmax", "setting": "[2]; submandibular gland, 24 h p.i.", "result": "17.30 ± 4.69"}, {"measurement": "SUVmax", "setting": "[2]; submandibular gland, 72 h p.i.", "result": "6.29 ± 1.61"}, {"measurement": "Side effects / adverse events", "setting": "[3]", "result": "not associated with any side effects; also recorded: no other side effects were observed"}]}
